{"source": "a melting point compilation (Tetko et al.; mined from patent text by program, amines drawn as free bases though some values may be those of a salt)", "data": [{"units": {"melting point": "°C"}, "values": [{"smiles": "O=C(Nc1c[nH]nc1C(=O)NCc1ccc(-c2ccccc2)cc1)c1ccccn1", "melting point": "227 to 228"}, {"smiles": "Cc1ccccc1-c1nn(C(C)(C)C(=O)N(C)C)cc1C", "melting point": "145 to 147"}, {"smiles": "COc1c(Cl)ccc(-c2cc(N)c(Cl)c(C(=O)N(C)O)n2)c1F", "melting point": "211 to 214"}, {"smiles": "Cn1ncc2c(c1=O)S(=O)CCNC2Cc1ccccc1", "note": "(stereo not drawn)", "melting point": "162 to 163"}, {"smiles": "Cc1ccc(S(=O)(=O)OCC2CCc3ccc4[nH]c(=O)[nH]c4c3O2)cc1", "note": "(stereo not drawn)", "melting point": 205}, {"smiles": "COC(=O)CCc1oc(=O)[nH]c1-c1ccc(Cl)cc1", "melting point": "147 to 148"}, {"smiles": "CCCc1c(OCc2ccc(C(=O)O)cc2OC)ccc(C(C)=O)c1O", "melting point": "248 to 250"}, {"smiles": "COC(=O)c1cc(I)cn1[Si](C(C)C)(C(C)C)C(C)C", "melting point": "81 to 83"}, {"smiles": "CC(C)c1cc(-c2ccncc2)c(-c2ccc(F)cc2)n1CCC1CC(O)CC(=O)O1", "note": "(stereo not drawn)", "melting point": "174 to 176"}, {"smiles": "CC(C)(C)OC(=O)N[C@@H](Cc1ccc(C(=N)NC(=O)OCc2ccccc2)cc1)C(=O)O", "melting point": "112 to 115"}, {"smiles": "CC(C(=O)c1ncn2c1c(=O)n(C(C)C)c1ccccc12)C(=O)C1CC1", "note": "(stereo not drawn)", "melting point": "167 to 169"}, {"smiles": "C=CCOc1cccc(C(=O)O)c1C(=O)O", "melting point": "166 to 167"}, {"smiles": "O=[N+]([O-])c1ccc(Cl)cc1Cc1ccccn1", "melting point": 69}, {"smiles": "CC(=O)C=Cc1cc2ccccc2o1", "melting point": "100 to 101"}, {"smiles": "Cc1cccc(Cl)c1N1CCCN(C2CCC2)C1=S", "melting point": "89 to 91"}, {"smiles": "Cc1ccc(C2COc3c(ccc(O)c3O)C2)cc1", "note": "(stereo not drawn)", "melting point": 164}, {"smiles": "CCCCCC/C=C/CCCCCCCC(=O)Nc1nc(CC(=O)O)cs1", "melting point": "117 to 118"}, {"smiles": "CS(=O)(=O)c1ccc(-n2nc(C(=O)O)cc2-c2ccc(-c3ccco3)cc2)cc1", "melting point": "> 280"}, {"smiles": "O=C1c2ccccc2C(=O)c2sc(Nc3ccccc3)nc21", "melting point": "> 260"}, {"smiles": "COc1cc2c(cc1OC)CCC(C(=O)N1CCN(C(=O)c3ccc(OC)c(OC)c3OC)CC1)=C2", "melting point": "166 to 167"}, {"smiles": "C=CCOC(=O)COc1cccc(NC(=O)NCNC(=O)c2ccccc2C(=O)c2ccccc2)c1", "melting point": "147 to 149"}, {"smiles": "COCC(C)Oc1cc(Oc2ccc(S(C)(=O)=O)cc2)cc2cc(C3=NCC(CC(C)(C)O)S3)[nH]c12", "note": "(stereo not drawn)", "melting point": "112 to 113"}, {"smiles": "CN1Cc2c(-c3noc(CN)n3)ncn2-c2ccsc2C1=O", "melting point": "202 to 204"}, {"smiles": "COc1ccc(C(C)N(C)CCCCOc2ccc(S(=O)(=O)c3c(C(C)C)cn4ccccc34)cc2)cc1OC", "note": "(stereo not drawn)", "melting point": "84 to 86"}, {"smiles": "CN[C@@H]1Cc2cccc3[nH]c(=S)n(c23)C1", "melting point": "210 to 213"}, {"smiles": "CC(C)(C)OC(=O)N1CCC(c2ccc(Nc3nc4c(-c5ccc(F)cc5)cccn4n3)cc2)CC1", "melting point": "88 to 91"}, {"smiles": "COc1ccc2cc(C(=O)CNC(=O)c3ccccc3)ccc2c1", "melting point": "172 to 174"}, {"smiles": "Nc1ccc(-c2ccc3nnn(Cc4ccc5ncccc5c4)c3n2)cc1", "melting point": "190 to 193"}, {"smiles": "COc1ccc(CCCN)cc1Cl", "melting point": "55 to 56"}, {"smiles": "CC(C)N1CCN(Cc2ccc3c(c2)-c2[nH]nc(-c4ccsc4)c2C3)CC1", "melting point": "182 to 185"}, {"smiles": "CC(Oc1ccc(Oc2ccc(C(F)(F)F)cc2)cc1)C(=O)OCS(C)(=O)=O", "note": "(stereo not drawn)", "melting point": "87 to 88"}, {"smiles": "CC1CN(c2ccccc2)N=C1N", "note": "(stereo not drawn)", "melting point": "83 to 84"}, {"smiles": "CC(NC(=O)C=Cc1ccccc1F)c1ccc2c(c1)N(C)CCC2", "note": "(stereo not drawn)", "melting point": "60 to 63"}, {"smiles": "CCCc1cc(N2CCC(NCC(O)c3ccnc4ccccc34)CC2)nc2sc(C(N)=O)c(N)c12", "note": "(stereo not drawn)", "melting point": "170 to 172"}, {"smiles": "CC(=O)c1c[nH]c(-c2ccncc2)c1C", "melting point": "210 to 211"}, {"smiles": "COc1nc(C)c2c(c1C=O)CCCC2O", "note": "(stereo not drawn)", "melting point": 107}, {"smiles": "O=C(C#CCO)c1ccc(F)cc1", "melting point": 63}, {"smiles": "COC(=O)CNC(=O)c1nc(Cl)c2ccccc2c1O", "melting point": 129}, {"smiles": "Cn1ccc(=O)c(OCc2ccccc2)c1C(=O)c1cccnc1", "melting point": "210 to 216"}, {"smiles": "O=S1(=O)N=CNc2ccc(F)cc21", "melting point": "260 to 263"}, {"smiles": "CC1CCCC(C)(C)C1CS(=O)(=O)c1ccccc1", "note": "(stereo not drawn)", "melting point": 73}, {"smiles": "CCCCCCc1ccc(O)c(C(=O)O)c1", "melting point": "83 to 84"}, {"smiles": "COc1ccc2c(c1)c1c3c(c(-c4ccccc4)cc1n2CCCO)C(=O)NC3=O", "melting point": "241 to 243"}, {"smiles": "OCCON=Cc1ccccn1", "melting point": 45}, {"smiles": "CC(C)c1nc2ccccc2c(=O)n1NC(=O)C(C)c1ccccc1", "note": "(stereo not drawn)", "melting point": "48 to 55"}, {"smiles": "O=C(Nc1ccc(-c2c[nH]c(=O)cn2)cc1)c1cccc([N+](=O)[O-])c1", "melting point": "> 250"}, {"smiles": "CS(=O)(=O)c1cc(S(F)(F)(F)(F)F)ccc1C(=O)c1cnoc1C1CC1", "melting point": "168 to 170"}, {"smiles": "CC(C)(C)c1cc(C(=S)SC(C)(C)c2ccccc2)cc(C(C)(C)C)c1O", "melting point": "100 to 104"}, {"smiles": "Cc1ccc(OCc2ccccc2)cc1NCc1ccccc1", "melting point": "66 to 67"}, {"smiles": "OC1(Cc2ccccc2)CCN(CCC(c2ccccc2)(c2ccccc2)c2ccccc2)CC1", "melting point": "72 to 74"}, {"smiles": "C=CCCc1cccc2c1C(=O)C1=C(CCCC1)C2=O", "melting point": "111 to 113"}, {"smiles": "CCCCCCCNCCCCCCCCSc1nc(-c2ccccc2)c(-c2ccccc2)[nH]1", "melting point": "87 to 89"}, {"smiles": "Nc1ccc(C(=O)c2c(F)cccc2F)c(N)n1", "melting point": "179 to 181"}, {"smiles": "CCC1CCC(Oc2cc(F)cc(C(=O)Nc3ccc(OCc4ccncc4)c4ccccc34)c2)CC1", "note": "(stereo not drawn)", "melting point": "93 to 95"}, {"smiles": "O=C(c1c2n(c3ccccc13)CCNCC2)C(F)(F)F", "melting point": "131 to 133"}, {"smiles": "CC(C)(C)OC(=O)N1CCCC[C@@H]1C(=O)c1ccc(Br)cc1", "melting point": "124 to 125"}, {"smiles": "CCCc1nn(C)c2c(=O)[nH]c(Cc3ccc(N(CC)CC)cc3)nc12", "melting point": "201 to 203"}, {"smiles": "Cc1oc(-c2ccccc2)nc1COc1ccc(CCCC2SC(=O)NC2=O)cc1C(F)(F)F", "note": "(stereo not drawn)", "melting point": "154 to 155"}, {"smiles": "CCN1OCC(=Cc2cc(C(C)(C)C)c(O)c(C(C)(C)C)c2)C1=O", "melting point": "189 to 191"}, {"smiles": "Cc1ncsc1CCOS(N)(=O)=O", "melting point": "80 to 83"}, {"smiles": "Cc1c(-c2ccccc2)[nH]c(=O)n1C1CCN(CCc2ccccc2)CC1", "melting point": "153 to 155"}, {"smiles": "Cc1nc2c(N)nc3cccnc3c2n1CC(C)C", "melting point": "228 to 230"}, {"smiles": "CC(=O)Nc1nc2c(s1)C(=O)C(Br)CC2", "note": "(stereo not drawn)", "melting point": "180 to 182"}, {"smiles": "CC(=O)OCC(O)COc1ccc2nc(S(N)(=O)=O)sc2c1", "note": "(stereo not drawn)", "melting point": "173 to 175"}, {"smiles": "COc1cccc(Nc2n[nH]c3ncnc(Nc4cccc(Cl)c4)c23)c1", "melting point": "202 to 203"}, {"smiles": "COc1ccc(CC(C)=O)cc1S(=O)(=O)N1CCSCC1", "melting point": "118 to 122"}, {"smiles": "CCOC(=O)CC(=O)CC(c1ccccc1)c1ccc(OC)c(OC2CCCC2)c1", "note": "(stereo not drawn)", "melting point": "56 to 58"}, {"smiles": "CCC(CC)n1cc(C#N)nc(N2CCc3cc(Cl)cc(Cl)c32)c1=O", "melting point": "197 to 199"}, {"smiles": "CC(=O)Nc1ccc2c(c1)C(c1ccccc1F)=NCc1cnc(C)n1-2", "melting point": "326 to 331"}, {"smiles": "CC(c1c[nH]cn1)c1cccc(C(=N)N)c1O", "note": "(stereo not drawn)", "melting point": 191}, {"smiles": "CCOC(=O)c1cnc2c(c(C)nn2-c2ccccn2)c1N", "melting point": "147 to 149"}, {"smiles": "Cc1nccc(N2CCC(O)(C(=O)N3CCN(C(=O)c4ccc(Br)cc4)CC3)CC2)n1", "melting point": "114 to 117"}, {"smiles": "OP(O)C(NC(c1ccccc1)c1ccccc1)c1c[nH]c2ccccc12", "note": "(stereo not drawn)", "melting point": 154}, {"smiles": "O=c1c2ccccc2sc2cccc(Oc3cc(Cl)cc(Cl)c3)c12", "melting point": "207 to 213"}, {"smiles": "COc1ccc(-c2c(C)c3ccc(O)cc3oc2=O)c(O)c1", "melting point": "213 to 214"}, {"smiles": "O=C(NCCCc1c[nH]c(-c2ccc(F)cc2)c1-c1ccncc1)C(F)(F)F", "melting point": "229 to 230"}, {"smiles": "COc1ccc(C=CC(=O)c2c(OC)cc(OC)cc2OC(C)=O)cc1", "melting point": "105 to 107"}, {"smiles": "O=C(OC1CCCCC1C(C[N+](=O)[O-])c1ccc(Cl)cc1)c1ccc([N+](=O)[O-])cc1", "note": "(mixture of isomers)", "melting point": "146 to 148"}, {"smiles": "O=C(C(=O)N1CCN(c2cccc3[nH]ccc23)CC1)c1c[nH]c2cc(Cl)ccc12", "melting point": "229 to 231"}, {"smiles": "O=C(c1ccccc1)N1CCn2c(CN3CCCCC3)ccc2C1", "melting point": "95 to 96"}, {"smiles": "Cc1ccc2ccc(C(N)=O)cc2c1", "melting point": "210 to 212"}, {"smiles": "COC(=O)NC(C)(C)c1ccc(CS(=O)(=O)c2ccc(C)c(C)c2)cc1", "melting point": "146 to 149"}, {"smiles": "CSCc1cc(O)cc2cc(-c3ccc(O)cc3)oc12", "melting point": "188 to 190"}, {"smiles": "Nc1ncc(-c2ccc([N+](=O)[O-])cc2-c2cccc(Cl)c2Cl)c(N)n1", "melting point": "237 to 239"}, {"smiles": "CCOC(=O)c1cnc2ccc(SC)cc2c1O", "melting point": "> 260"}, {"smiles": "C[Si](C)(C)OCCCc1c[nH]c2ccccc12", "melting point": "34 to 38"}, {"smiles": "CN1CCN(CCCNc2sc(-c3cc[nH]n3)c3c2C(=O)CC(C)(C)C3)CC1", "melting point": "160 to 163"}, {"smiles": "O=C1C(Cc2ccccc2)C(c2ccccc2)=Nc2ccccc2N1Cc1ccccc1", "note": "(stereo not drawn)", "melting point": "173 to 174"}, {"smiles": "Cn1cc(C2=C(c3cn(C)c4cc(O)ccc34)C(=O)NC2=O)c2ccccc21", "melting point": "279 to 282"}, {"smiles": "O=c1c(Br)c(Br)cnn1Cc1ccccc1", "melting point": "95 to 96"}, {"smiles": "O=C(CCl)Nc1nc(Cl)c(-c2ccccc2)s1", "melting point": "215 to 216"}, {"smiles": "CCC(CO)Nc1c(-c2c(F)cc(F)cc2F)c(Cl)nc2ncnn12", "note": "(stereo not drawn)", "melting point": "76 to 77"}, {"smiles": "CC(C)Nc1nc(N)c(C(=O)N=CNNS(=O)(=O)N(C)C)nc1Cl", "melting point": 172}, {"smiles": "CCOc1cccc(-c2n[nH]c(-c3ccccc3C)n2)c1", "melting point": "84 to 86"}, {"smiles": "FC(F)=C(F)CCSc1nnc(-c2ccc(Cl)cc2)s1", "melting point": "68 to 69"}, {"smiles": "CN1c2ccc(-c3cccc4ccccc34)cc2Sc2cc(-c3cccc4ccccc34)ccc21", "melting point": "185 to 190"}, {"smiles": "Cc1cc2nc(Cl)c3cnc(Cl)cc3n2n1", "melting point": 203}, {"smiles": "CCOC(=O)COc1ccc(OCc2ccccc2)cc1C(Nc1ccc(C(=N)NC(=O)OC(C)(C)C)cc1)C(=O)OCC", "note": "(racemic)", "melting point": 258}, {"smiles": "O=S(=O)(c1ccc(O)cc1)N(CC(F)(F)F)c1ccc(O)cc1", "melting point": "172 to 173"}, {"smiles": "COC(=O)c1nc2c(c(SC)nn2-c2ccccc2)c(N)c1C(=O)OC", "melting point": "120 to 122"}, {"smiles": "N[C@@H]1C[C@H]2c3ccccc3-c3cccc(c32)NC1=O", "note": "(relative stereo)", "melting point": "104 to 107"}, {"smiles": "N#CCc1c[nH]c2cccnc12", "melting point": "201 to 202"}, {"smiles": "Oc1cccc(/C=C/c2nc3ccccc3s2)c1", "melting point": "210 to 211"}]}]}
